US8653048B2 (Sanlugen Pharmatech Ltd., priority 2009, dated 2014)
pIC50: −log10 of the molar value.

Key:
[1] = system: SGC7901: a human gastric cancer line; test: MTT analytical method, SGC7901 cells; assay type: cell-based; conditions: SGC-7901, 72 h
From the text: (§1) MTT analytical method was used to test the prodrugs for various tumor cells.
(§2) • 1) Cell lines: NCI-H460, A549, LOVO, HT-29, MDA-MB-231, SGC7901, HepG2 or BEL-7402 cell lines. Culture: adherent culturing in D-MEM (Hyclone, Inc.) containing 10% fetal calf serum. The initial cell concentration was about 3×10^5 /mL. The cell was passaged by 1:3 dilution in every 2-3 days. On the day before the test, the cell was passaged by 1:2 dilution, the cell concentration for the test was 5-10×10^5 /mL. • 2) Dissolution and dilution of compounds: according to the weight and molecular weight of the drugs provided, 100-200 μL of DMSO was added. Then normal saline was added to make the final diluted concentration of the drugs be 5 mM (Note that the final concentration of DMSO should not be more than 10%). • 3) D-MEM or RPMI 1640 cell culture medium, Gibco, Inc. • 4) Fetal calf serum Hyclone, Inc. • 5) Cell dissociation buffer, 0.25% Trypsin+0.02% EDTA. • 6) MTT solution, MTT Powder (Sigma) were dissolved in PBS buffer solution to make a solution of 5 mg/mL. The solution was filtered by a 0.22 μm micropore membrane and stored at −20° C. • 7) PBS buffer solution. • 8) 10% acidified SDS, 0.01N HCl. • 9) Centrifuge tubes, haustorial tubes etc. (BD, Inc.); 96-well plates (Costatr, Inc.) Procedures: • 1) Cell inoculation: Cells grown for 24 hours after passage, which cells were in good growth state, were used. The cells were harvested by the routine method. The cell concentration was adjust with a fresh culture solution to 2×10^5/mL (for adherent cells)-3×10^5/mL (for suspension cells). The adherent cells were inoculated at 100 μL/well and then cultivated in an incubator with 5% CO2 at 37° C. for 24 h. Thereafter the used culture solution was removed and 95 μL/well of fresh culture solution was added. The suspension cells were inoculated at 95 μL/well directly. • 2) Drugs treatment: 9 concentration grades were designed for every drug, and every concentration had 3 wells. The control group had 5 wells. The control group was tested simultaneously in each test. The final concentrations of a drug added were […], and 5 μL normal saline was added to the control group. • 3) Cell culture and detection: the cells were cultured in an incubator with 5% CO2 at 37° C. for 72 h after the drug was added, then 10 μL MTT was added to each well and the culture was continued for 4 h. 100 μL of 10% SDS (containing 0.01N HCl) was added to each well. After 24 h, the absorbance (A) of each well was determined by Bio-rad 680 ELISA with the detection wavelength of 570 nm and the reference wavelength of 630 nm. Calculation:
(§3) First, the absorbance (A) of each well was averaged (removing any data with big difference). […] A0 was the mean absorbance of the control wells. The effect curve of the drug concentration was drawn using EXCEL software and the drug concentration for 50% cell survival was calculated according to an appropriate computing methods.

[2] = system: MDA-MB-231: a human breast cancer line; test: MTT analytical method, MDA-MB-231 cells; assay type: cell-based; conditions: MDA-MB-231, MTT, 72 h
From the text: as §1, §2, §3

[3] = system: HT29: a human colon cancer cell line; test: MTT analytical method, HT29 cells; assay type: cell-based; conditions: HT-29, 72 h
From the text: as §1, §2, §3

[4] = system: NCI-H460: a human lung cancer cell line; test: MTT analytical method, NCI-H460 cells; assay type: cell-based; conditions: 72 h
From the text: as §1, §2, §3

[5] = system: Bel7402: a human liver cancer cell line; test: MTT analytical method, Bel7402 cells; assay type: cell-based; conditions: Bel-7402, 72 h
From the text: as §1, §2, §3

[6] = system: HepG2: a human liver cancer cell line; test: MTT analytical method, HepG2 cells; assay type: cell-based; conditions: 72 h
From the text: as §1, §2, §3

[7] = system: LOVO: a human colon cancer cell line; test: MTT analytical method, LOVO cells; assay type: cell-based; conditions: 72 h
From the text: as §1, §2, §3

[8] = system: A549: a human lung cancer cell line; test: MTT analytical method, A549 cells; assay type: cell-based; conditions: 72 h
From the text: as §1, §2, §3

Hepatocellular Carcinoma = conditions: patients, liver cancer treatment; cited from earlier work

SMILES | pIC50 [1] | pIC50 [2] | pIC50 [3] | pIC50 [4] | pIC50 [5] | pIC50 [6] | pIC50 [7] | pIC50 [8] | fatal rate of complication (Hepatocellular Carcinoma) [%]
CCCCCCCCCCCOC(=O)c1nccnc1C(=O)Nc1ccn([C@@H]2O[C@H](CO)[C@@H](O)C2(F)F)c(=O)n1 [Compound 5, Undecyl-3-((1-((2R,4R,5R)-3,3-difluoro-4-hydroxy-5-(hydroxymethyl)-tetrahydrofuran-2-yl)-2-oxo-1,2-dihydropyrimidin-4-yl)carbamoyl)pyrazine-2-carboxylate] | < 4.80 | < 4.80 | 4.52 | > 5.70 | 4.80 | 5.40 | 6.00 |  | 
CCCCCCCCCCCCOC(=O)c1ccc(C(=O)Nc2ccn([C@@H]3O[C@H](CO)[C@@H](O)C3(F)F)c(=O)n2)nc1 [Compound 8, Dodecyl-6-((1-((2R,4R,5R)-3,3-difluoro-4-hydroxy-5-(hydroxymethyl)-tetrahydrofuran-2-yl)-2-oxo-1,2-dihydropyrimidin-4-yl)carbamoyl)nicotinate] | < 4.80 | < 4.80 | 5.22 | > 5.70 | 4.64 | 5.15 | 4.85 | 5.40 | 
CCCCCCCCCCCCOC(=O)c1ccc(C(=O)Nc2ccn([C@@H]3O[C@H](CO)[C@@H](O)C3(F)F)c(=O)n2)cn1 [Compound 9, Dodecyl-5-((1-((2R,4R,5R)-3,3-difluoro-4-hydroxy-5-(hydroxymethyl)-tetrahydrofuran-2-yl)-2-oxo-1,2-dihydropyrimidin-4-yl)carbamoyl)picolinate] | < 4.80 | < 4.80 | 5.52 | > 5.70 | 4.89 | 5.22 | 5.30 | 5.40 | 
CCCCCCCCCCCOC(=O)c1ncccc1C(=O)Nc1ccn([C@@H]2O[C@H](CO)[C@@H](O)C2(F)F)c(=O)n1 [Compound 15, Undecyl-3-((1-((2R,4R,5R)-3,3-difluoro-4-hydroxy-5-(hydroxymethyl)-tetrahydrofuran-2-yl)-2-oxo-1,2-dihydropyrimidin-4-yl)carbamoyl)picolinate] | < 4.80 | 4.96 | > 5.70 | > 6.00 | 5.40 | 5.40 | 4.80 | 5.52 | 
CCCCCCCCCCCOC(=O)c1ccncc1C(=O)Nc1ccn([C@@H]2O[C@H](CO)[C@@H](O)C2(F)F)c(=O)n1 [Compound 22, Undecyl-3-((1-((2R,4R,5R)-3,3-difluoro-4-hydroxy-5-(hydroxymethyl)-tetrahydrofuran-2-yl)-2-oxo-1,2-dihydropyrimidin-4-yl)carbamoyl)isonicotinate] |  |  | 4.52 |  | 4.80 |  |  | 5.10 | 
CCCCCCCCCCCCOC(=O)c1ccncc1C(=O)Nc1ccn([C@@H]2O[C@H](CO)[C@@H](O)C2(F)F)c(=O)n1 [Compound 24, Dodecyl-3-((1-((2R,4R,5R)-3,3-difluoro-4-hydroxy-5-(hydroxymethyl)-tetrahydrofuran-2-yl)-2-oxo-1,2-dihydropyrimidin-4-yl)carbamoyl)isonicotinate] |  |  | 5.10 |  | 4.80 |  |  | 5.10 | 
CCCCCCCCCCCCOC(=O)c1ccnc(C(=O)Nc2ccn([C@@H]3O[C@H](CO)[C@@H](O)C3(F)F)c(=O)n2)c1 [Compound 26, Dodecyl-2-((1-((2R,4R,5R)-3,3-difluoro-4-hydroxy-5-(hydroxymethyl)-tetrahydrofuran-2-yl)-2-oxo-1,2-dihydropyrimidin-4-yl)carbamoyl)isonicotinate] | < 4.80 | 5.22 | 5.70 | > 6.00 | 5.10 | 5.70 | 4.80 | 5.52 | 
CCCCCCCCCCCCOC(=O)c1cc(C(=O)Nc2ccn([C@@H]3O[C@H](CO)[C@@H](O)C3(F)F)c(=O)n2)ccn1 [Compound 27, Dodecyl-4-((1-((2R,4R,5R)-3,3-difluoro-4-hydroxy-5-(hydroxymethyl)-tetrahydrofuran-2-yl)-2-oxo-1,2-dihydropyrimidin-4-yl)carbamoyl)picolinate] | < 4.80 | > 6.00 | > 5.70 | > 6.00 | 5.40 | 6.00 | 5.70 | 5.40 | 
CCCCCCCCCCCOC(=O)c1ccnc(C(=O)Nc2ccn([C@@H]3O[C@H](CO)[C@@H](O)C3(F)F)c(=O)n2)c1 [Compound 28, Undecyl-2-((1-((2R,4R,5R)-3,3-difluoro-4-hydroxy-5-(hydroxymethyl)-tetrahydrofuran-2-yl)-2-oxo-1,2-dihydropyrimidin-4-yl)carbamoyl)isonicotinate] |  |  | 5.70 |  | 5.10 |  |  | 5.10 | 
CCCCCCCCCCCOC(=O)c1cc(C(=O)Nc2ccn([C@@H]3O[C@H](CO)[C@@H](O)C3(F)F)c(=O)n2)ccn1 [Compound 29, Undecyl-4-((1-((2R,4R,5R)-3,3-difluoro-4-hydroxy-5-(hydroxymethyl)-tetrahydrofuran-2-yl)-2-oxo-1,2-dihydropyrimidin-4-yl)carbamoyl)picolinate] |  |  | > 5.70 |  | 5.10 |  |  | 5.52 | 
CCCCCCCCCCCOC(=O)c1cc(C(=O)Nc2ccn([C@@H]3O[C@H](CO)[C@@H](O)C3(F)F)c(=O)n2)[nH]n1 [Compound 30, Undecyl-5-((1-((2R,4R,5R)-3,3-difluoro-4-hydroxy-5-(hydroxymethyl)-tetrahydrofuran-2-yl)-2-oxo-1,2-dihydropyrimidin-4-yl)carbamoyl)-1H-pyrazole-3-carboxylate] |  |  | 5.40 |  | 4.80 |  |  | 4.85 | 
CCCCCCCCCCCCOC(=O)c1cc(C(=O)Nc2ccn([C@@H]3O[C@H](CO)[C@@H](O)C3(F)F)c(=O)n2)[nH]n1 [Compound 31, Dodecyl-5-((1-((2R,4R,5R)-3,3-difluoro-4-hydroxy-5-(hydroxymethyl)-tetrahydrofuran-2-yl)-2-oxo-1,2-dihydropyrimidin-4-yl)carbamoyl)-1H-pyrazole-3-carboxylate] |  |  | 5.15 |  | 4.52 |  |  | 4.68 | 
COc1cccc2c1C(=O)c1c(O)c3c(c(O)c1C2=O)C[C@@](O)(C(=O)CO)C[C@@H]3O[C@H]1C[C@H](N)[C@H](O)[C@H](C)O1 [Doxorubicin] |  |  |  |  |  |  |  |  | ~25
